Test results from US8546343B2, “Aminoglycoside antibiotics targeting bacterial 16S ribosomal RNA” (Eidgenoessische Technische Hochschule Zurich, priority 2007, dated 2013).
≈ marks a conversion by molar mass, not a printed value.

How the values were obtained:
[1] = system: M. smegmatis ΔrrnB (bacterial ribosomes); test: MIC, recombinant M. smegmatis with bacterial (wild-type) ribosomes; format: cell-based, Mycobacterium smegmatis; conditions: 72 h at 37° C.
Procedure, shortened: (§1)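 M. smegmatis single-rRNA-operon strain carrying the indicated 16S rRNA decoding-site alleles, introduced into the chromosomal operon and confirmed by sequencing. Colony-purified cultures were grown in LB with 0.05% Tween 80 and started at OD600 0.025. MIC was read in microtiter format against twofold drug dilutions.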

[2] = system: M. smegmatis ΔrrnB 1408G (16S rRNA position 1408 G, eukaryotic cytosolic ribosomes); test: MIC, recombinant M. smegmatis with mutant ribosomes 1408G; format: cell-based, Mycobacterium smegmatis; conditions: M. smegmatis ΔrrnB 1408G mutant ribosomes; 72 h at 37° C.
Procedure, shortened: as §1

[3] = system: M. smegmatis ΔrrnB 1491A (16S rRNA position 1491 A, eukaryotic cytosolic ribosomes); test: MIC, recombinant M. smegmatis with mutant ribosomes 1491A; format: cell-based, Mycobacterium smegmatis; conditions: M. smegmatis ΔrrnB 1491A mutant ribosomes; 72 h at 37° C.
Procedure, shortened: as §1

[4] = system: M. smegmatis ΔrrnB 1491C (16S rRNA position 1491 C, eukaryotic mitochondrial ribosome); test: MIC, recombinant M. smegmatis with mutant ribosomes 1491C; format: cell-based, Mycobacterium smegmatis; conditions: M. smegmatis ΔrrnB 1491C mutant ribosomes; 72 h at 37° C.
Procedure, shortened: as §1

[5] = system: AG011 Staph. aureus clinical isolate; test: Standard MIC assay, AG011; format: cell-based, Staphylococcus aureus
Procedure: (§2) Selected compounds of the present invention were tested for antibiotic susceptibility using clinical isolates of Staphylococci, Enterococci and Escherichia coli as well as strains carrying defined resistance determinants and compared to well known antibiotics of the state of the art. Drug susceptibility was determined in standard MIC assays, i.e. by determination of the minimal drug concentration required to inhibit bacterial growth in vitro.

[6] = system: AG013 Staph. epi. clinical isolate; test: Standard MIC assay, AG013; format: cell-based, Staphylococcus epidermidis
Procedure: as §2

[7] = system: AG014 Staph. epi. clinical isolate; test: Standard MIC assay, AG014; format: cell-based, Staphylococcus epidermidis
Procedure: as §2

[8] = system: AG016 S. aureus BM3002; test: Standard MIC assay, AG016; format: cell-based, Staphylococcus aureus
Procedure: as §2

[9] = system: AG015 S. aureus BM3002 (ANT4′); test: Standard MIC assay, AG015; format: cell-based, Staphylococcus aureus
Procedure: as §2

[10] = system: AG017 E. faecalis JH2-2; test: Standard MIC assay, AG017; format: cell-based, Enterococcus faecalis
Procedure: as §2

[11] = system: AG019 E. faecalis JH2-2 (APH2″ AAC6′); test: Standard MIC assay, AG019; format: cell-based, Enterococcus faecalis
Procedure: as §2

[12] = system: AG001 E. coli clinical isolate; test: Standard MIC assay, AG001; format: cell-based, Escherichia coli
Procedure: as §2

[13] = system: AG002 E. coli clinical isolate; test: Standard MIC assay, AG002; format: cell-based, Escherichia coli
Procedure: as §2

[14] = system: AG003 E. coli clinical isolate; test: Standard MIC assay, AG003; format: cell-based, Escherichia coli
Procedure: as §2

[15] = system: AG004 E. coli clinical isolate; test: Standard MIC assay, AG004; format: cell-based, Escherichia coli
Procedure: as §2

[16] = system: AG006 E. coli BM13; test: Standard MIC assay, AG006; format: cell-based, Escherichia coli
Procedure: as §2

[17] = system: AG007 E. coli BM13 (AAC3); test: Standard MIC assay, AG007; format: cell-based, Escherichia coli
Procedure: as §2

[18] = system: AG008 E. coli BM13 (ANT2″); test: Standard MIC assay, AG008; format: cell-based, Escherichia coli
Procedure: as §2

[19] = system: AG009 E. coli BM13 AAC(6′)-1B; test: Standard MIC assay, AG009; format: cell-based, Escherichia coli
Procedure: as §2

## NCC1OC(OC2C(CO)OC(OC3C(O)C(N)CC(N)C3OC3OC(CO)C(OCc4ccccc4)C(O)C3N)C2O)C(N)C(O)C1O (centres unmarked) [Compound 11, 4′-O-Benzylparomomycin]
[1]
  minimal inhibitory concentrations ΔrrnB: 4 µg/mL
[2]
  minimal inhibitory concentrations ΔrrnB 1408G: >512 µg/mL
[3]
  minimal inhibitory concentrations ΔrrnB 1491A: ≧512 μg/ml
[4]
  minimal inhibitory concentrations ΔrrnB 1491C: >512 µg/mL
[5]; Staphylococcus aureus, read-out: Minimal inhibitory concentrations AG011
  MIC: 8 µg/mL (≈ 11.3 µM)
[6]; Staphylococcus epidermidis, read-out: Minimal inhibitory concentrations AG013
  MIC: 16 µg/mL (≈ 22.7 µM)
[7]; Staphylococcus epidermidis, read-out: Minimal inhibitory concentrations AG014
  MIC: 8 µg/mL (≈ 11.3 µM)
[8]; Staphylococcus aureus, read-out: Minimal inhibitory concentrations AG016
  MIC: 16 to 32 µg/mL (≈ 22.7 to 45.3 µM)
[9]; Staphylococcus aureus, read-out: Minimal inhibitory concentrations AG015
  MIC: 32 µg/mL (≈ 45.3 µM)
[10]; Enterococcus faecalis, read-out: Minimal inhibitory concentrations AG017
  MIC: 32 to 64 µg/mL (≈ 45.3 to 90.7 µM)
[11]; Enterococcus faecalis, read-out: Minimal inhibitory concentrations AG019
  MIC: > 256 µg/mL
[12]; Escherichia coli, read-out: Minimal inhibitory concentrations AG001
  MIC: 64 µg/mL (≈ 90.7 µM)
[13]; Escherichia coli, read-out: Minimal inhibitory concentrations AG002
  MIC: 32 to 64 µg/mL (≈ 45.3 to 90.7 µM)
[14]; Escherichia coli, read-out: Minimal inhibitory concentrations AG003
  MIC: 32 to 64 µg/mL (≈ 45.3 to 90.7 µM)
[15]; Escherichia coli, read-out: Minimal inhibitory concentrations AG004
  MIC: 64 µg/mL (≈ 90.7 µM)
[16]; Escherichia coli, read-out: Minimal inhibitory concentrations AG006
  MIC: 32 µg/mL (≈ 45.3 µM)
[17]; Escherichia coli, read-out: Minimal inhibitory concentrations AG007
  MIC: 32 µg/mL (≈ 45.3 µM)
[18]; Escherichia coli, read-out: Minimal inhibitory concentrations AG008
  MIC: 64 to 128 µg/mL (≈ 90.7 to 181 µM)
[19]; Escherichia coli, read-out: Minimal inhibitory concentrations AG009
  MIC: 64 to 128 µg/mL (≈ 90.7 to 181 µM)

## NC[C@@H]1O[C@H](O[C@H]2[C@@H](O)[C@H](O[C@@H]3[C@@H](O)[C@H](N)C[C@H](N)[C@H]3O[C@H]3O[C@H](CO)[C@@H](OCc4ccc(Cl)cc4)[C@H](O)[C@H]3N)O[C@@H]2CO)[C@H](N)[C@@H](O)[C@@H]1O [Compound 19a, 4′-p-chlorobenzylparomomycin]
[1]
  minimal inhibitory concentrations ΔrrnB: 2 µg/mL
[2]
  minimal inhibitory concentrations ΔrrnB 1408G: ≧512 μg/ml
[3]
  minimal inhibitory concentrations ΔrrnB 1491A: ≧512 μg/ml
[4]
  minimal inhibitory concentrations ΔrrnB 1491C: >512 µg/mL
[5]
  Minimal inhibitory concentrations AG011: 2 µg/mL (≈ 2.7 µM)
[6]
  Minimal inhibitory concentrations AG013: 4 µg/mL (≈ 5.4 µM)
[7]
  Minimal inhibitory concentrations AG014: 2 µg/mL (≈ 2.7 µM)
[8]
  Minimal inhibitory concentrations AG016: 4 µg/mL (≈ 5.4 µM)
[9]; S. aureus BM3002 (ANT4′)
  Minimal inhibitory concentrations AG015: 8 to 16 µg/mL
[10]
  Minimal inhibitory concentrations AG017: 8 to 16 µg/mL
[11]; E. faecalis JH2-2 (APH2″ AAC6′)
  Minimal inhibitory concentrations AG019: 32 to 64 µg/mL
[12]
  Minimal inhibitory concentrations AG001: 8 to 16 µg/mL
[13]
  Minimal inhibitory concentrations AG002: 16 µg/mL (≈ 21.6 µM)
[14]
  Minimal inhibitory concentrations AG003: 8 to 16 µg/mL
[15]
  Minimal inhibitory concentrations AG004: 8 to 16 µg/mL
[16]
  Minimal inhibitory concentrations AG006: 8 to 16 µg/mL
[17]; E. coli BM13 (AAC3)
  Minimal inhibitory concentrations AG007: 8 to 16 µg/mL
[18]; E. coli BM13 (ANT2″)
  Minimal inhibitory concentrations AG008: 8 to 16 µg/mL
[19]; E. coli BM13 AAC(6′)-1B
  Minimal inhibitory concentrations AG009: 32 µg/mL (≈ 43.2 µM)
